In patent US10253236B2, “Environmental friendly well treatment fluids comprising an ester” (AMRIL AG, priority 2013, dated 2019):

Tests used:
[1] = Electrical stability of the oil based mud (Model 23D Electrical Stability Tester, API 13B-2); assay type: physicochemical; conditions: 2.5 g additive in oil based mud, measuring temp. 50° C.
Protocol: (§1) An oil based well treatment fluid was prepared as follows: the indicated amounts of the following ingredients are mixed using a Silverson Mixer (model L4RT) in the following order: synthetic paraffin, filtration control agent (a polymer: preferably Adapta by Halliburton), Ca(OH)2, Amidoamin (Terradril EM 1122), Water, CaCl2*2H2O, BaSO4, ball clay.
(§2) Next, either an ester of the invention (for example azelaic ricinoleate or an ester based on a C21 dimer acid and ricinoleic acid) or a conventional viscosifier (C36 dimer acid) is added to the mixture and to obtain the final emulsion a standard Hamilton Beach mixer was used, following manufacturer's instructions.
(§3) Next, the rheological characteristics including the fluids-plastic viscosity (PV), yield point (YP) and gel strength (gels 10″/10′) after 10 seconds and 10 minutes were determined with a Fann SR 12/Model 35 rheometer (Fann). In addition to the rheological characteristics, the electrical stability was tested using a Model 23D Electrical Stability Tester, following manufacturer's instructions, in accordance with API recommended practice 13B-2, December 1991.
(§4) The well treatment fluid was also tested in a Roller Oven for the indicated times at the indicated temperatures (after hot rolling=AHR and before hot rolling=BHR as indicated in the Table). As roller oven, a Baroid Laboratory Roller Oven was used, following manufacturer's instructions.

[2] = system: seawater bacteria; experiment: Inhibition to seawater bacteria (Marine BODIS test); conditions: natural seawater
Protocol: This method uses natural seawater (salinity 34%-37%) with added mineral nutrients (8.5 g/l KH2PO4, 21.7 g/l K2HPO4, 29.92 g/l Na2HPO4.2H2O, 0.5 g/l NH4Cl, 31.84 CaCl2, 22.5 g/l MgSO4.7H2O, 0.25 g/l FeCl3.6H2O, 0.4 g/l EDTA) and no inoculum was added in addition to the microorganisms already present in the seawater. The test vessels were closed glass bottles with a known volume of aqueous test mixture (66.6%) and air (33.3%). They were shaken continuously to assure steady state oxygen partitioning between the aqueous and gaseous phase. The degradation was followed by weekly measurements of the biochemical oxygen demand (BOD) in the aqueous phase for a 28-day period. The test vessels were re-aerated and resealed after measurement. The total oxygen uptake in the test flasks was calculated from the measured oxygen concentration divided by the saturation value at normal conditions and multiplied with the total oxygen content originally present in the aqueous and gaseous phases.
Three replicates were used for each test condition: test substance, controls, and insoluble reference substance. The total oxygen capacity of each test vessel was 26.64 mg oxygen. […]

[3] = Rheological characteristics of the oil based mud (Fann SR 12/Model 35 rheometer); assay type: physicochemical; conditions: 2.5 g additive in oil based mud, measuring temp. 50° C.
Protocol: as §1, §2, §3, §4

[4] = AHR (after hot rolling) 16 h (System 4: 15 h) at 150 °F
[5] = AHR 16 h (System 4: 15 h) at 150 °F

Row | Compound | Electrical stab. [1, 4] [V] | Electrical stab. ([1]; BHR (before hot rolling)) [V] | inhibition to seawater bacteria [2] [%] | 3 rpm [3, 5] [skt] | 6 rpm [3, 5] [skt] | 100 rpm [3, 5] [skt] | 200 rpm [3, 5] [skt] | 300 rpm [3, 5] [skt] | 600 rpm [3, 5] [skt] | Gels 10′ (gel strength after 10 minutes) [3, 5] [lb/100 ft^2] | Gels 10″ (gel strength after 10 seconds) [3, 5] [lb/100 ft^2] | PV (plastic viscosity) [3, 5] [cP] | YP (yield point) [3, 5] [lb/100 ft^2] | 3 rpm ([3]; BHR) [skt] | 6 rpm ([3]; BHR) [skt] | 100 rpm ([3]; BHR) [skt] | 200 rpm ([3]; BHR) [skt] | 300 rpm ([3]; BHR) [skt] | 600 rpm ([3]; BHR) [skt] | Gels 10′ (gel strength after 10 minutes) ([3]; BHR) [lb/100 ft^2] | also measured
1 | C36 dimer acid | 830 | 795 | −1 | 10 | 12 | 23 | 29 | 35 | 49 | 15 | 11 | 14 | 21 | 15 | 15 | 25 | 32 | 39 | 52 | 19 | Gels 10″ (gel strength after 10 seconds) ([3]; BHR): 16 lb/100 ft^2; PV (plastic viscosity) ([3]; BHR): 13 cP; YP (yield point) ([3]; BHR): 26 lb/100 ft^2
2 | CCCCCCC(CC=CCCCCCCCC(=O)O)OC(=O)CCCCCCCC(=O)O (stereo not shown) [Azelaic ricinoleate, azelaic ricinoleate] | 802 | 760 | −14 | 24 | 24 | 30 | 37 | 44 | 59 | 25 | 22 | 15 | 29 | 25 | 25 | 31 | 38 | 44 | 59 | 25 | Gels 10″ (gel strength after 10 seconds) ([3]; BHR): 20 lb/100 ft^2; PV (plastic viscosity) ([3]; BHR): 15 cP; YP (yield point) ([3]; BHR): 29 lb/100 ft^2
